What was measured:
hAMPK-alpha2 = biological target: T1, hAMPK-alpha2 (Homo sapiens, UniProt P54646); test: KINOMEscan; format: binding
T1 construct: purchased DiscoverX

hABL1(pT315I) = biological target: T2, hABL1(pT315I) (Homo sapiens, UniProt P00519, T315I); test: KINOMEscan; format: binding
T2 construct: purchased DiscoverX (KINOMEscan platform)

hD1 = hD1 (Homo sapiens, UniProt P21728); test: cAMP 1% DMSO Potentiation (Eurofins-CEREP); details: @ 10 μM
hRET(V804L) = biological target: T3, hRET(V804L) (Homo sapiens, UniProt P07949, V804L); test: KINOMEscan; format: binding
T3 construct: purchased DiscoverX (KINOMEscan platform)

hKIT(L576P) = biological target: T4, hKIT(L576P) (Homo sapiens, UniProt P10721, L576P); test: KINOMEscan; format: binding
T4 construct: purchased DiscoverX (KINOMEscan panel)

hEPHA7 = biological target: T5, hEPHA7 (Homo sapiens, UniProt Q15375); test: KINOMEscan; format: binding
T5 construct: purchased DiscoverX

hRAF1 = biological target: T6, hRAF1 (Homo sapiens, UniProt P04049); test: KINOMEscan; format: binding
T6 construct: purchased DiscoverX (KINOMEscan platform)

hARK5 = biological target: T7, hARK5 (Homo sapiens, UniProt O60285); test: KINOMEscan; format: binding
T7 construct: purchased DiscoverX

hABL1(pF317L) = biological target: T8, hABL1(pF317L) (Homo sapiens, UniProt P00519, F317L); test: KINOMEscan; format: binding
T8 construct: purchased DiscoverX (KINOMEscan platform)

hIKK-beta = biological target: T9, hIKK-beta (Homo sapiens, UniProt O14920); test: KINOMEscan; format: binding
T9 construct: purchased DiscoverX (KINOMEscan panel)

hRARβ = biological target: T10, hRARβ (Homo sapiens, UniProt P10826); test: Nuclear hormone receptor assay (Eurofins-CEREP); details: read-out: Relative IC50
T10 construct: Eurofins-CEREP

hABL1(T315I) = biological target: T11, hABL1(T315I) (Homo sapiens, UniProt P00519, T315I); test: KINOMEscan; format: binding
T11 construct: purchased DiscoverX (KINOMEscan platform)

hLRRK2 = biological target: T12, hLRRK2 (Homo sapiens, UniProt Q5S007); test: KINOMEscan; format: binding
T12 construct: purchased DiscoverX (KINOMEscan platform)

hTGFBR2 = biological target: T13, hTGFBR2 (Homo sapiens, UniProt P37173); test: KINOMEscan; format: binding
T13 construct: purchased DiscoverX

hCAMK2D = biological target: T14, hCAMK2D (Homo sapiens, UniProt Q13557); test: KINOMEscan; format: binding
T14 construct: purchased DiscoverX

hVEGFR2 = biological target: T15, hVEGFR2 (Homo sapiens, UniProt P35968); test: KINOMEscan; format: binding
T15 construct: purchased DiscoverX

hSRPK3 = biological target: T16, hSRPK3 (Homo sapiens, UniProt Q9UPE1); test: KINOMEscan; format: binding
T16 construct: purchased DiscoverX (KINOMEscan platform)

hCAMK1G = biological target: T17, hCAMK1G (Homo sapiens, UniProt Q96NX5); test: KINOMEscan; format: binding
T17 construct: purchased DiscoverX

hTNK1 = biological target: T18, hTNK1 (Homo sapiens, UniProt Q13470); test: KINOMEscan; format: binding
T18 construct: purchased DiscoverX

hTYRO3 = biological target: T19, hTYRO3 (Homo sapiens, UniProt Q06418); test: KINOMEscan; format: binding
T19 construct: purchased DiscoverX

hEPHA1 = biological target: T20, hEPHA1 (Homo sapiens, UniProt P21709); test: KINOMEscan; format: binding
T20 construct: purchased DiscoverX

hADRβ2 = hADRβ2 (Homo sapiens, UniProt P07550); test: cAMP Agonist (Eurofins-CEREP); details: @ 10 μM
hLRRK2(G2019S) = biological target: T21, hLRRK2(G2019S) (Homo sapiens, UniProt Q5S007, G2019S); test: KINOMEscan; format: binding
T21 construct: purchased DiscoverX (KINOMEscan platform)

hSRC = biological target: T22, hSRC (Homo sapiens, UniProt P12931); test: KINOMEscan; format: binding
T22 construct: purchased DiscoverX (KINOMEscan platform)

hABL1(pH396P) = biological target: T23, hABL1(pH396P) (Homo sapiens, UniProt P00519, H396P); test: KINOMEscan; format: binding
T23 construct: purchased DiscoverX (KINOMEscan platform)

hEGFR(L858R) = biological target: T24, hEGFR(L858R) (Homo sapiens, UniProt P00533, L858R); test: KINOMEscan; format: binding
T24 construct: purchased DiscoverX

hFGR = biological target: T25, hFGR (Homo sapiens, UniProt P09769); test: KINOMEscan; format: binding
T25 construct: purchased DiscoverX

hCDKL3 = biological target: T26, hCDKL3 (Homo sapiens, UniProt Q8IVW4); test: KINOMEscan; format: binding
T26 construct: purchased DiscoverX

hADORA3 = biological target: T27, hADORA3 (Homo sapiens, UniProt P0DMS8); test: cAMP Potentiation (Eurofins-CEREP); details: @ 10 μM
T27 sequence (P0DMS8 1-318): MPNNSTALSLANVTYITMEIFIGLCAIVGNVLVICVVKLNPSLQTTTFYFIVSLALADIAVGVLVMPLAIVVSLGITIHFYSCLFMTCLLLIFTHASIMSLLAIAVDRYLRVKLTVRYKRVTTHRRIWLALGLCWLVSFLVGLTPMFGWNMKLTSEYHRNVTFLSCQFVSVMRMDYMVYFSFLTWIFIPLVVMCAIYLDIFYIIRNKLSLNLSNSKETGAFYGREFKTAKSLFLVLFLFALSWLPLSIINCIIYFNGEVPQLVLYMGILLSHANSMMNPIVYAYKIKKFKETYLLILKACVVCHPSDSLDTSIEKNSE

hBIKE = biological target: T28, hBIKE (Homo sapiens, UniProt Q9NSY1); test: KINOMEscan; format: binding
T28 construct: purchased DiscoverX

hFLT1 = biological target: T29, hFLT1 (Homo sapiens, UniProt P17948); test: KINOMEscan; format: binding
T29 construct: purchased DiscoverX

hBRSK1 = biological target: T30, hBRSK1 (Homo sapiens, UniProt Q8TDC3); test: KINOMEscan; format: binding
T30 construct: purchased DiscoverX

hTTK = biological target: T31, hTTK (Homo sapiens, UniProt P33981); test: KINOMEscan; format: binding
T31 construct: purchased DiscoverX

hABL2 = biological target: T32, hABL2 (Homo sapiens, UniProt P42684); test: KINOMEscan; format: binding
T32 construct: purchased DiscoverX (KINOMEscan platform)

hMEK3 = biological target: T33, hMEK3 (Homo sapiens, UniProt P46734); test: KINOMEscan; format: binding
T33 construct: purchased DiscoverX

[1] = biological target: T34, hRPS6KA5(Kin.Dom.2-C-term) (Homo sapiens, UniProt O75582); test: KINOMEscan; format: binding
T34 construct: hRPS6KA5(Kin.Dom.2-C-term); purchased DiscoverX (KINOMEscan platform)

T33 sequence (P46734 whole entry): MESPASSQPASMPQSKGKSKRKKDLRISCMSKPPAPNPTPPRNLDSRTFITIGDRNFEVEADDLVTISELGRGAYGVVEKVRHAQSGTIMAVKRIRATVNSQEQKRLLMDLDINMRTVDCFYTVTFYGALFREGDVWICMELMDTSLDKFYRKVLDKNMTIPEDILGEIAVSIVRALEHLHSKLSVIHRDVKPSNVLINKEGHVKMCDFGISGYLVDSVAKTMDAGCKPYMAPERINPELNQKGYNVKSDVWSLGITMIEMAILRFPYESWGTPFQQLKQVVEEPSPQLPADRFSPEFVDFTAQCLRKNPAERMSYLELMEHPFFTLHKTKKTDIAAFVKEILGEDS
T25 sequence (P09769 whole entry): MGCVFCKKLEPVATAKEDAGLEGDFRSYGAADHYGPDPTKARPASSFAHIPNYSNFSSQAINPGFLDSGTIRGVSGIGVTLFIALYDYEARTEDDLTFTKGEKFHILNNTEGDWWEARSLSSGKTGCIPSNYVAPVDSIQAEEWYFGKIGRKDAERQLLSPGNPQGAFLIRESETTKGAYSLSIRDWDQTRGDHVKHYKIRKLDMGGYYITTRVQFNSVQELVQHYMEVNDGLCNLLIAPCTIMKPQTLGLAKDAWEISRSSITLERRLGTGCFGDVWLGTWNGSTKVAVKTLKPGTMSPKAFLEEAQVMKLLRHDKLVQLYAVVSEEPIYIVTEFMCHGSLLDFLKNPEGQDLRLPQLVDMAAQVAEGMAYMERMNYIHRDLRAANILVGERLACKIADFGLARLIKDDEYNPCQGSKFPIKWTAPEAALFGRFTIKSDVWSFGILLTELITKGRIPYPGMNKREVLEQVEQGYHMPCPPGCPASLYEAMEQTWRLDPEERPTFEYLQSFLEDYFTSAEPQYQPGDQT
T30 sequence (Q8TDC3 whole entry): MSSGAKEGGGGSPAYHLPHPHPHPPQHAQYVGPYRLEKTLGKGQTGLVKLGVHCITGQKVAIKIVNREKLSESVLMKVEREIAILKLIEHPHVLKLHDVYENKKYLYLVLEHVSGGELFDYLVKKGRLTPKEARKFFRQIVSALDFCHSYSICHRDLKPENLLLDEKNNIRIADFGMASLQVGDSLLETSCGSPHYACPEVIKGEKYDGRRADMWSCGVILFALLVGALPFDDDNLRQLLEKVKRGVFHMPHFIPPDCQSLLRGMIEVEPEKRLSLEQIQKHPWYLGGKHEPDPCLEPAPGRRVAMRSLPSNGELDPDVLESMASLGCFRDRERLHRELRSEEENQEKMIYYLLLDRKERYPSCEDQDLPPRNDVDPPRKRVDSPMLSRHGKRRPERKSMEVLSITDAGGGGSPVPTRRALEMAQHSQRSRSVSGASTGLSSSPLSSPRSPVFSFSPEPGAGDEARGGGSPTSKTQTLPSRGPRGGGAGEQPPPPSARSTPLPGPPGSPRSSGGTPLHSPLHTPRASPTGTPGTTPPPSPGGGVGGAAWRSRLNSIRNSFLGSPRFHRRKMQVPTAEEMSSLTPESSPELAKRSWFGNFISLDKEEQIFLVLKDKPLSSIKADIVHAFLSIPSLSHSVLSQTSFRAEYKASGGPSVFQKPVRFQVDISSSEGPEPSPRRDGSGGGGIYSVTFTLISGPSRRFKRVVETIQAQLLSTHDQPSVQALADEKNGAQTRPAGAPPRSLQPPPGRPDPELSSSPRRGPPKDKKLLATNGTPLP
Sequence of hADRβ2 (P07550 whole entry): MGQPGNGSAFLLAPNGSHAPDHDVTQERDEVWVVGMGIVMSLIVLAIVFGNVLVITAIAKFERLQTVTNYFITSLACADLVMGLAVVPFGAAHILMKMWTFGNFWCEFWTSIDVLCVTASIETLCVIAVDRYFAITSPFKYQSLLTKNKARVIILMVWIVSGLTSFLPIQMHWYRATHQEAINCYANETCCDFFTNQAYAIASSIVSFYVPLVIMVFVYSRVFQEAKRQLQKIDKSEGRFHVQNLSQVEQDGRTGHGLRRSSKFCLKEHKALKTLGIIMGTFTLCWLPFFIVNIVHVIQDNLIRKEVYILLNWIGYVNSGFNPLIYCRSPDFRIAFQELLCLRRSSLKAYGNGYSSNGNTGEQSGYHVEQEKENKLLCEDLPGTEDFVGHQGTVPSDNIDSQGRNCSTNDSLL
T15 sequence (P35968 20-1356): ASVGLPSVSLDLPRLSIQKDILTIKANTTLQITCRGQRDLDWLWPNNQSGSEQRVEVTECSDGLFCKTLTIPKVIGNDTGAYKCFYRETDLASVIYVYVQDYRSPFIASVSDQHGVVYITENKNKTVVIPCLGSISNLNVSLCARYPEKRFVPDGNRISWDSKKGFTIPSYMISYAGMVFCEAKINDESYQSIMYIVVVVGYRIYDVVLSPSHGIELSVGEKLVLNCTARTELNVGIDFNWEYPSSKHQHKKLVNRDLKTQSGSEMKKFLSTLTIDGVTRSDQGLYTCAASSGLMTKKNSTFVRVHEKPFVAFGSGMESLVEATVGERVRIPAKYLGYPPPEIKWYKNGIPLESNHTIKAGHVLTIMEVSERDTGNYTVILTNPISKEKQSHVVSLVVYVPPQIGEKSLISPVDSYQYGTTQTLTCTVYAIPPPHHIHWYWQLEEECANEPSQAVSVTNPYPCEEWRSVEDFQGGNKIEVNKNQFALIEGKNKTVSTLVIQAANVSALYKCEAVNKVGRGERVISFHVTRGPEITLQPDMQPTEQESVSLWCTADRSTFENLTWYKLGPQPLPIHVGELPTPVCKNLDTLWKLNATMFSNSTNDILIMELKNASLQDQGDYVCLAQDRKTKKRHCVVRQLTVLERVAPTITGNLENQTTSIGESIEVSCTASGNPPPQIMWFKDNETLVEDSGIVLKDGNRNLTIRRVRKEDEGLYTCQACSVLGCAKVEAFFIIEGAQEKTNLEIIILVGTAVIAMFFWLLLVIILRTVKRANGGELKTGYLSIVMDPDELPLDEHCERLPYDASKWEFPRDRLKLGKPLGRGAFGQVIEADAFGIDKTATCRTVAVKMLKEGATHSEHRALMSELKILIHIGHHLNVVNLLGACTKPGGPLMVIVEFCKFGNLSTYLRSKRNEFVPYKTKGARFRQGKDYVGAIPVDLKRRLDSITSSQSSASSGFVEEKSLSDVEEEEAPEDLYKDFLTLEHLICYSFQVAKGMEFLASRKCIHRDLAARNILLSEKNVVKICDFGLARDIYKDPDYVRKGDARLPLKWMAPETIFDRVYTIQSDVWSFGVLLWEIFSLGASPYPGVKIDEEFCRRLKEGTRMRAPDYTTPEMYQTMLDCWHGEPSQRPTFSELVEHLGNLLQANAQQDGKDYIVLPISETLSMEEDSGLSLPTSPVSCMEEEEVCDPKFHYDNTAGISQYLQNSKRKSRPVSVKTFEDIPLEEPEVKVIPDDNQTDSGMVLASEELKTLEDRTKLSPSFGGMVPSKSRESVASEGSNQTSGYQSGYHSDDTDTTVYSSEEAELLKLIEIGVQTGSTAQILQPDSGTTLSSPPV
T31 sequence (P33981 whole entry): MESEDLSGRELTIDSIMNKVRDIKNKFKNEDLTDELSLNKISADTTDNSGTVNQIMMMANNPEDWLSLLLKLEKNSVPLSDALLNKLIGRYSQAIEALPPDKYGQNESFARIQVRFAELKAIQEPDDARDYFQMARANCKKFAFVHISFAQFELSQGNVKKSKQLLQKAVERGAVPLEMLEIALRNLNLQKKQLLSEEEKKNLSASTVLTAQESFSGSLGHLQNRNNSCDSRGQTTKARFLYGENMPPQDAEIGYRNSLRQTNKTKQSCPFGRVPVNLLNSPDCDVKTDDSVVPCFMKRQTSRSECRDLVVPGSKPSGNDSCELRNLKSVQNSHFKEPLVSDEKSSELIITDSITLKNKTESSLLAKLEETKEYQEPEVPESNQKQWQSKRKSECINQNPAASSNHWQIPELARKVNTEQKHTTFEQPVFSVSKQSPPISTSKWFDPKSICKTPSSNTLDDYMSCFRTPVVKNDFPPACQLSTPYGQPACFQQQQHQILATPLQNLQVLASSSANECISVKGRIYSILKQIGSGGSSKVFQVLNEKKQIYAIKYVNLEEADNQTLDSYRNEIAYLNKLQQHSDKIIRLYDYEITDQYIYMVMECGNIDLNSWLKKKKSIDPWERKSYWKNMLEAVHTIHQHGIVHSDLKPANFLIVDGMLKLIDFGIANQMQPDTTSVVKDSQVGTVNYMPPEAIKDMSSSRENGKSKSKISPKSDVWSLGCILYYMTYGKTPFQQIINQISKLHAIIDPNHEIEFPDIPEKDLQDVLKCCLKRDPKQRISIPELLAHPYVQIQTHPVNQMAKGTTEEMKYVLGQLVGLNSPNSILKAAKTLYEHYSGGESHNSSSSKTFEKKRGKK
T1 sequence (P54646 whole entry): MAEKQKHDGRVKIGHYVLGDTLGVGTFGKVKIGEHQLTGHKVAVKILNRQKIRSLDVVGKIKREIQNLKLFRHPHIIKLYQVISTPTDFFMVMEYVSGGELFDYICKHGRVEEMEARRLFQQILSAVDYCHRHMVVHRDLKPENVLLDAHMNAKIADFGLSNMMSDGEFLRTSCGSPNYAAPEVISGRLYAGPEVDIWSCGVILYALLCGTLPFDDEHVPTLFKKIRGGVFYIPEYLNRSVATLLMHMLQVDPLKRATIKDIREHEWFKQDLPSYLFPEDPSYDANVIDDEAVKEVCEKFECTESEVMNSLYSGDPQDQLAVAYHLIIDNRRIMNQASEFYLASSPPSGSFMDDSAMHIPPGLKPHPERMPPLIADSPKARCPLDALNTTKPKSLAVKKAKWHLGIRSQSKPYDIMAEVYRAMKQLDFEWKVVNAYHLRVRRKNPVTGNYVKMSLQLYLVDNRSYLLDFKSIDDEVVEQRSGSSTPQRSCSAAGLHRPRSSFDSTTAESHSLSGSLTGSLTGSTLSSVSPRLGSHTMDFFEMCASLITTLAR

Cc1cn(CCN2CCN(c3ccccc3-c3cc(C#N)cc(C(=O)NCCCN4CCCC4)c3)CC2)c2ccccc12 [LLY-507, 3-cyano-5-{2-[4-[2-(3-methylindol-1-yl)ethyl]piperazin-1-yl]-phenyl}-N-[(3-pyrrolidin-1-yl)propyl]benzamide]
IC50 (hAMPK-alpha2): > 20 µM | IC50 (hABL1(pT315I)): > 20 µM | % Effect, Potentiation (hD1): -19.4% | IC50 (hRET(V804L)): > 20 µM | IC50 (hKIT(L576P)): > 20 µM | IC50 (hEPHA7): > 20 µM | IC50 (hRAF1): > 20 µM | IC50 (hARK5): > 20 µM | IC50 (hABL1(pF317L)): > 20 µM | IC50 (hIKK-beta): > 20 µM | IC50 (hRARβ): > 10 µM | IC50 (hABL1(T315I)): > 20 µM | IC50 (hLRRK2): > 20 µM | IC50 (hTGFBR2): > 20 µM | IC50 (hCAMK2D): > 20 µM | IC50 (hVEGFR2): > 20 µM | IC50 (hSRPK3): > 20 µM | IC50 (hCAMK1G): > 20 µM | IC50 (hTNK1): > 20 µM | IC50 (hTYRO3): > 20 µM | IC50 (hEPHA1): > 20 µM | % Effect, Stimulation (hADRβ2): 0.1% | IC50 (hLRRK2(G2019S)): > 20 µM | IC50 (hSRC): > 20 µM | IC50 (hABL1(pH396P)): > 20 µM | IC50 (hEGFR(L858R)): > 20 µM | IC50 (hFGR): > 20 µM | IC50 (hCDKL3): > 20 µM | % Effect, Potentiation (hADORA3): -7.3% | IC50 (hBIKE): > 20 µM | IC50 (hFLT1): > 20 µM | IC50 (hBRSK1): > 20 µM | IC50 (hTTK): > 20 µM | IC50 (hABL2): > 20 µM | IC50 (hMEK3): > 20 µM | IC50 [1]: > 20 µM

From paper PMC4447944 (The Journal of Biological Chemistry, 2015)
